Our source for the Papp values is patent US9018234B2, “Fluoro-substituted 2-aryl-3,5-dicyano-4-indazolyl-6-methyl-1,4-dihydropyridines and uses thereof” (Bayer Intellectual Property GmbH, priority 2009, dated 2015).

The series can be described thus: Caco-2 permeability assay. Type of series: in vitro ADME. The conditions noted are these: human, apical to basolateral, 2 μM test concentration, 2 h at 37° C., read-out: Caco-2 permeability PappA-B. From the text:
Caco-2 Permeability Assay:
The in vitro permeation of a test compound across a Caco-2 cell monolayer is a well-established assay system to predict the permeability from the gastro-intestinal tract [cf. P. Artursson and J. Karlsson: Correlation between oral drug absorption in humans and apparent drug permeability coefficients in human intestinal epithelial (Caco-2) cells, Biochem. Biophys. 175 (3), 880-885 (1991)]. The permeability of the compounds of the present invention in such Caco-2 cells was determined as described below:
Human Caco-2 cells (ACC No. 169, DSMZ, German Collection of Microorganisms and Cell Cultures, Braunschweig, Germany) are seeded on 24-well insert plates and are allowed to grow for 14-16 days. For permeability studies, the test compounds are dissolved in DMSO and diluted to the final test concentration of 2 μM with transport buffer [Hanks' Buffered Salt Solution, Gibco/Invitrogen, further supplemented with glucose (final concentration 19.9 mM) and HEPES (final concentration 9.8 mM)]. For determination of the apical to basolateral permeability (PappA-B), the test compound solution is added to the apical side of the cell monolayer and transport buffer to the basolateral side of the monolayer; for determination of the basolateral to apical permeability (PappB-A), the test compound solution is added to the basolateral side of the cell monolayer and transport buffer to the apical side of the monolayer. Samples are taken from the donor compartment at the beginning of the experiment to confirm mass balance. After an incubation of 2 h at 37° C., samples are taken from both compartments. Samples are analyzed by LC-MS/MS, and the apparent permeability coefficients are calculated. Lucifer Yellow permeability is assayed for each cell monolayer to ensure cell monolayer integrity, and the permeability of Atenolol (low permeability marker) and Sulfasalazine (marker for active excretion) is determined for each batch as quality control.
Representative results from this assay are listed in Table 2 below together with corresponding data for two structural analogs having an unsubstituted methyl group in 6-position of the 1,4-dihydropyridine ring (comparative Examples A and B, see experimental section above; disclosed generically in WO 2008/071451-A1): […]
In the case of `Cc1n[nH]c2ccc(C3C(C#N)=C(c4ccc(F)cc4)NC(C(F)F)=C3C#N)cc12` (racemic) [Example 6], the Papp at 2 h, 2 μM amounted to 15 ×10⁻⁶ cm/s.
For the compound `Cc1n[nH]c2ccc(C3C(C#N)=C(c4ccc(F)cc4)NC(C(F)(F)F)=C3C#N)cc12` (racemic) [Example 13], the Papp at 2 h, 2 μM is 15.8 ×10⁻⁶ cm/s.
As for `COc1ccc(C2=C(C#N)C(c3ccc4[nH]nc(C)c4c3)C(C#N)=C(C)N2)cc1` (racemic) [Example A, 2-(4-Methoxyphenyl)-6-methyl-4-(3-methyl-1H-indazol-5-yl)-1,4-dihydropyridine-3,5-dicarbonitrile, reference compound], the Papp at 2 h, 2 μM came out at 9.9 ×10⁻⁶ cm/s.
Take `CC1=C(C#N)C(c2ccc3[nH]nc(C)c3c2)C(C#N)=C(c2ccc(F)cc2)N1` (racemic) [Example B, 2-(4-Fluorophenyl)-6-methyl-4-(3-methyl-1H-indazol-5-yl)-1,4-dihydropyridine-3,5-dicarbonitrile, reference compound]: the Papp at 2 h, 2 μM amounted to 6.2 ×10⁻⁶ cm/s.
The same measure for `COc1ccc(C2=C(C#N)C(c3ccc4[nH]nc(C)c4c3)C(C#N)=C(C(F)F)N2)cc1` (centres unmarked) [Example 8]: 17 ×10⁻⁶ cm/s.
